The values below come from US5310659A, “GL-7ACA acylase” (priority 1990, dated 1994).

Series [1] has as its target T1, GL-7ACA acylase J1 of Bacillus laterosporus J1 (SEQ ID NO: 3), purified from recombinant E. coli (Brevibacillus laterosporus, UniProt Q45289). The series is described as follows: biochemical. The settings on record: for Relative activity (%): enzyme treated 37° C. 3 hours in 0.1 M Tris-HCl (pH 8), residual activity vs blank-treated enzyme, substrate GL-7ACA. As for the experimental part:
Effect of p-chloromercuribenzoate (pCMB, Sigma Chemical Co., Ltd.), phenylmethylsulfonyl fluoride (PMSF, Sigma) and ethylenediaminetetraacetic acid (EDTA, Nacalai Tesque Inc., Japan) on the activity of GL-7ACA acylase J1 was examined as follows. Eleven μg of GL-7ACA acylase J1 was treated at 37° C. for 3 hours with 1.0 or 5.0 mM pCMB, 1.0 or 5.0 mM PMSF, or 1.0 or 5.0 mM EDTA in 200 μl of 0.1 M Tris-HCl buffer (pH 8). Residual activity of the treated enzyme was assayed by adding 22 μl of GL-7ACA (20 mg/ml) as a substrate to the mixture. The reaction was performed at 37° C for 10 min. Residual activity was expressed as a percentage compared to the activity of the enzyme treated with blank solution.

Series [2] concerns CC(=O)OCC1=C(C(=O)O)N2C(=O)C(NC(=O)CCCC(=O)O)[C@H]2SC1. Nature of the series: Michaelis-Menten kinetics of GL-7ACA hydrolysis, HPLC assay, Lineweaver-Burk plot. In kind it is biochemical, Bacillus laterosporus J1. The settings on record: 37° C., 2 min. The method, then:
Transformant colonies were picked up and grown overnight at 30° C. in 1 ml of 2% Bouillon (Eiken Chemical Co., Ltd., Japan) supplemented with 1 mM […] (IPTG; Sigma Chemical Co., Ltd., U.S.A.). Cells were harvested by centrifugation and resulting cell pellets were used for assay. Reaction mixture (200 μl ) containing 100 mM phosphate buffer (pH 8), 2 mg of GL-7ACA and cell pellets were thoroughly mixed and incubated for 10 min at 37° C. The reaction was terminated by the addition of 200 μl of 4% acetic acid. Samples were applied to a Inertsil ODS-2 column (4.6 mm × 150 mm) (Gasukuro Kogyo Co., Ltd., Japan) and elution was performed with 0.567 g/l of Na2 HPO4, 0.36 g/l of KH2 PO4 and 2-4% methanol. 7ACA was detected with absorption at 254 nm.
The activity of the GL-7ACA acylase J1 was determined by HPLC assay. […] Specific enzyme activity was expressed as unit per mg of protein. Protein concentrations were determined by Bio-Rad protein assay kit (Bio-Rad Co., Ltd., U.S.A.) with bovine serum albumin as a standard. Maximum specific enzyme activity (Vmax) and Michaelis constant (Km) were calculated from slope and intersection which were obtained by Lineweaver-Burk plot (Cf. M. Dixon and E. C. Webb, Enzymes, Longmans, London, 1958). […]

The target in series [3] is T1, GL-7ACA acylase J1 of Bacillus laterosporus J1 (SEQ ID NO: 3), purified from recombinant E. coli. The series is described as follows: Inhibition by reaction products (competitive), Ki determination by HPLC assay. In kind it is biochemical. The settings on record: substrate GL-7ACA, 37° C. As for the experimental part: Inhibitory activity of reaction products, namely 7-ACA and glutaric acid on the enzyme activity of GL-7ACA acylase J1 was examined. The enzyme activity was assayed in the presence of various concentrations of 7-ACA or glutaric acid. For determination of Ki of 7-ACA, reaction mixture (200 μl) containing 20 μmole of glycine buffer (pH 9), 0.39-2.0 μmole of GL-7ACA, 0.3-0.48 μmole of 7-ACA and 11 μg of enzyme was used and the reaction was performed at 37° C. for 6 min. For determination of Ki of glutaric acid, reaction mixture (200 μl) containing (a) 20 μmole of glycine buffer (pH 9), 0.26-3.0 μmol of GL-7ACA, 2-10 μmol of glutaric acid and 11 μg of the enzyme (b) 20 μmol of Tris-HCl buffer (pH 8), 0.05-1.0 μmol of GL-7ACA, […] of glutaric acid and 5 μg of the enzyme was used. The reaction was performed at 37° C. for 3 min. […] Ki values were calculated from the apparent Michaelis constants (Kmapp), Km and Vmax. Ki values of 7-ACA was 2.0 mM.

[4] abbreviates: pH 8, read-out: Relative activity (%).

pKi: −log10 of the molar value. Read-outs that look alike come from different tables or passages of the source.

T1 sequence (Q45289 entry or part of it): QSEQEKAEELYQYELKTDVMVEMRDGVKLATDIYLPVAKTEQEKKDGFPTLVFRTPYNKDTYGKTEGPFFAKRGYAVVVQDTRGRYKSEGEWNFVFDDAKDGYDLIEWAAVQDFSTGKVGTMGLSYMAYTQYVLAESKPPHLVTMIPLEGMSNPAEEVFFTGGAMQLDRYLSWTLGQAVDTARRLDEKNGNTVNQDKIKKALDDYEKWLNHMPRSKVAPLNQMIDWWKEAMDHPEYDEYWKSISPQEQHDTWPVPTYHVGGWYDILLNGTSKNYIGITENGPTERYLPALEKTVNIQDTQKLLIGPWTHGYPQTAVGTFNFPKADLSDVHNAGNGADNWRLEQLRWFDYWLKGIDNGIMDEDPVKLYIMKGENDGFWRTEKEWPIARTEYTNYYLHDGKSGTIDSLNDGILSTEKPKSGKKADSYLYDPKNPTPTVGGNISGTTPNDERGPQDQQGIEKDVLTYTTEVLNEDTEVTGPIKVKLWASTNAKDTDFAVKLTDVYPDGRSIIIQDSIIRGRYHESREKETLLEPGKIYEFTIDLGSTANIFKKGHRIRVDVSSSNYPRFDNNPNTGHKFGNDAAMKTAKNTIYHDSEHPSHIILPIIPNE

Regarding `O=C(O)CN(CCN(CC(=O)O)CC(=O)O)CC(=O)O` [EDTA, ethylenediaminetetraacetic acid], in series [1] (setting [4]), the activity at 1000 µM is 100% and the activity at 5000 µM came out at 102%.
`O=C(O)c1cc[c]([Hg][Cl])cc1` [pCMB, p-chloromercuribenzoate]: the entries for the “Relative activity (%)” value in series [1] (inhibitor 1 mM) and in series [1] (inhibitor 5 mM) were 106% and 104%, respectively.
The like results for `O=S(=O)(F)Cc1ccccc1` [PMSF, phenylmethylsulfonyl fluoride] were, in that order, 90% and 78%.
In the case of “GL-7ACA acylase J1 of Bacillus laterosporus J1 (SEQ ID NO: 3), purified from recombinant E. coli (Brevibacillus laterosporus)”, the Michaelis-Menten constant (Km) is 140 µM in series [2] (other: 100 mM Tris-HCl buffer (pH 8), 0.16-5 mM GL-7ACA, pH 8.0) and 3200 µM in series [2] (other: 100 mM glycine buffer (pH 9), 1.4-20 mM GL-7ACA, pH 9.0).
On to `CC(=O)OCC1=C(C(=O)O)N2C(=O)C(N)C2SC1` (centres unmarked) [7-ACA, 7-aminocephalosporanic acid], for which the pKi in series [3] (glycine buffer (pH 9), 6 min, read-out: Ki of 7-ACA) was 2.70.
Consider `O=C(O)CCCC(=O)O` [glutaric acid], for which the pKi in series [3] (0.1M Tris-HCl buffer (pH 8), 3 min, read-out: Ki of glutaric acid) was 3.00; in series [3] (0.1M glycine buffer (pH 9), 3 min, read-out: Ki of glutaric acid) it was 1.28.

A word on the Km: it is the concentration of substrate that gives half-maximal velocity. In general, pKi refers to the negative decadic logarithm of the Ki, by convention in mol/L.
